The results in this text go back to patent publication US11274111B2, “Arginase inhibitors and methods of use” (Merck Sharp & Dohme Corp., priority 2018, dated 2022).

In the test the target is T1, Arginase (Homo sapiens, UniProt P05089).
T1 construct: Arginase protein was recombinantly expressed in Escherichia coli
T1 sequence (P05089 1-322): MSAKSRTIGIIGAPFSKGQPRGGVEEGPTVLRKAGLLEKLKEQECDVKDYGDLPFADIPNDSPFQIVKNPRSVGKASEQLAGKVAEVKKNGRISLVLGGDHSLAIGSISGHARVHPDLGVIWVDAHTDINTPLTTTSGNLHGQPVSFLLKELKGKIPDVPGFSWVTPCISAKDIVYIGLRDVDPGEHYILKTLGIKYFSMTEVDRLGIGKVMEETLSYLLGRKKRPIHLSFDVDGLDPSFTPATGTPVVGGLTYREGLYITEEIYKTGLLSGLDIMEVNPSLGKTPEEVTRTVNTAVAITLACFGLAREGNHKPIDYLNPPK
Put plainly: Arginase Thioornithine Generating Assay (TOGA). The conditions noted are these: for IC50: recombinant arginase 1.88 nM, thioarginine substrate; for inhibition at 100 µM: Top Dose 100000 nM. Type of test: biochemical. The protocol: Arginase Thioornithine Generating Assay (TOGA)
Compounds were serially diluted in ten 3-fold steps in DMSO starting from 10 mM DMSO stocks. Compound dilutions or DMSO alone were then dispensed from the dilution plate into a Greiner black 384-well assay plate (catalog #781086) using an Echo 555 acoustic liquid handler (Labcyte).
Arginase protein was recombinantly expressed in Escherichia coli. Purified protein was then diluted in assay buffer (50 mM Tris pH 7.5, 50 mM NaCl, 1 mM manganese chloride, 0.05% bovine serum albumin to obtain a final Arginase concentration of 1.88 nM. Arginase solution (20 μL) or buffer alone (20 μL) were dispensed to wells of the assay plate using a BioRAPTR liquid dispenser (Beckman Coulter). Assay plates containing compound and arginase enzyme were incubated at room temperature for 30 minutes. Afterwards, 5 μL of 2.5 mM thioarginine (Cayman Chemicals) in assay buffer were added to each well of the assay plate using a BioRAPTR liquid dispenser. Plates were incubated at room temperature for 60 minutes and reactions were quenched by addition of 15 μL of 200 uM 7-Diethylamine-3-(4-maleimidophenyl)-4-methylcoumarin (Sigma Chemical) in 70% ethanol. Plates were briefly shaken to mix and the fluorescence was measured in an Spectramax plate reader (Molecular Devices) with a 410 nm excitation wavelength and an 490 nm emission wavelength.
Potencies were calculated by […] to the four parameter logistic IC50 equation.

The mark [1] stands for this setting: Top Dose 10000 nM, read-out: Percent Inhibition at Top Dose.
[2] abbreviates: read-out: Percent Inhibition at Top Dose.
Where [3] appears, read: read-out: Percent Inhibition at Top Dose, Top Dose 10000 nM.

Structures can show the parent of a compound that is named as a salt. Where two headings read alike, the source gives them in different places.

With `N[C@@H](CO)C(=O)N1C[C@@H]2C[C@@](N)(C(=O)O)[C@@H](CCCB(O)O)[C@@H]2C1` [Example 6, (3aR,4S,5S,6aR)-2-(L-seryl)-5-amino-4-(3-boronopropyl)octahydrocyclopenta[c]pyrrole-5-carboxylic acid], the IC50 (in general, the concentration at which inhibition is half-maximal) worked out at 179 nM. Moreover, the inhibition – broadly, the percentage by which the read-out fell short of the control – at 10 µM under setting [1] came to 94.2%.
Regarding `CN[C@@]1(C(=O)O)C[C@H]2CNC[C@H]2[C@@H]1CCCB(O)O` [Example 22, (3aR,4S,5S,6aR)-4-(3-boronopropyl)-5-(methylamino)octahydrocyclopenta[c]pyrrole-5-carboxylic acid], the inhibition at 10 µM under setting [1] was 93.9%.
Same read-out and setting: as for `NC1(C(=O)O)CC2(CNC2)CC1CCCB(O)O` (single isomer, unassigned) [Example 35c, 6-amino-7-(3-boronopropyl)-2-azaspiro[3.4]octane-6-carboxylic acid], the figure is 82.3%.
For the molecule `NC(=O)CN1CC2CC(N)(C(=O)O)C(CCCB(O)O)C2C1` (stereo not shown) [Example 15, 5-amino-2-(2-amino-2-oxoethyl)-4-(3-boronopropyl)octahydrocyclopenta[c]pyrrole-5-carboxylic acid], under setting [1], the inhibition at 10 µM stood at 88.6%.
On the same count and under the same terms, as for `NCCN1C[C@@H]2C[C@@](N)(C(=O)O)[C@@H](CCCB(O)O)[C@@H]2C1` [Example 9, (3aR,4S,5S,6aR)-5-amino-2-(2-aminoethyl)-4-(3-boronopropyl)octahydrocyclopenta[c]pyrrole-5-carboxylic acid], the figure is 98%.
In the case of `C[C@@H]1NC[C@@H]2CC(N)(C(=O)O)[C@@H](CCCB(O)O)C21` (stereo partly drawn) [Example 31b, (3aR,6S,6aR)-5-amino-6-(3-boronopropyl)-1-methyloctahydrocyclopenta[c]pyrrole-5-carboxylic acid, HFBA Salt], under setting [1], the inhibition at 10 µM was 70%.
For the molecule `N[C@]1(C(=O)O)[C@H](CCCB(O)O)C[C@H]2C[C@H]21` [Example 36b, (1R,2R,3R,5R)-2-amino-3-(3-boronopropyl)bicyclo[3.1.0]hexane-2-carboxylic acid], the inhibition at 10 µM under setting [1] stood at 47.4%.
Take `C[C@H](N)C(=O)N[C@H]1C[C@@H]2C[C@@](N)(C(=O)O)[C@@H](CCCB(O)O)[C@@H]2C1` [Example 46, (1S,2S,3aR,5S,6aR)-2-amino-5-((S)-2-aminopropanamido)-1-(3-boronopropyl)octahydropentalene-2-carboxylic acid]: the IC50 is 529 nM. Moreover, the inhibition at 10 µM under setting [1] is 96.8%.
Regarding `N[C@H]1C[C@@H]2C[C@@](N)(C(=O)O)[C@@H](CCCB(O)O)[C@@H]2C1` [Example 45, (1S,2S,3aR,5S,6aR)-2,5-diamino-1-(3-boronopropyl)octahydropentalene-2-carboxylic acid], the inhibition at 10 µM under setting [1] was determined as 99.4%.
For the molecule `CC(C)[C@H](N)C(=O)N[C@H]1C[C@@H]2C[C@@](N)(C(=O)O)[C@@H](CCCB(O)O)[C@@H]2C1` [Example 47, (1S,2S,3aR,5S,6aR)-2-amino-5-((S)-2-amino-3-methylbutanamido)-1-(3-boronopropyl)octahydropentalene-2-carboxylic acid], the IC50 was 522 nM. Further, the inhibition at 10 µM under setting [1] was found to be 94.2%.
As for “(1S,2S,3aR,5R,6R,6aR)-2-amino-1-(3-boronopropyl)-6-fluoro-5-(methylamino)octahydropentalene-2-carboxylate [Example 53b]”, the IC50 was 6.93 nM. Moreover, the “Percent Inhibition at Top Dose” value (Top Dose 10000 nM) is recorded as 100%.
With `CN(C)[C@@H]1C[C@@H]2C[C@@](N)(C(=O)O)[C@@H](CCCB(O)O)[C@@H]2C1` [Example 50, (1S,2S,3aR,5R,6aR)-2-amino-1-(3-boronopropyl)-5-(dimethylamino)octahydropentalene-2-carboxylic acid], under setting [1], the inhibition at 10 µM is 97.8%.
As for `NC(=O)N1CC2CC(N)(C(=O)O)C(CCCB(O)O)C2C1` (single isomer, unassigned) [Example 17a, 5-amino-4-(3-boronopropyl)-2-carbamoyloctahydrocyclopenta[c]pyrrole-5-carboxylic acid], the inhibition at 10 µM under setting [1] was found to be 90.6%.
Take `CCN1C[C@@H]2C[C@@](N)(C(=O)O)[C@@H](CCCB(O)O)[C@@H]2C1` [Example 12, (3aR,4S,5S,6aR)-5-amino-4-(3-boronopropyl)-2-ethyloctahydrocyclopenta[c]pyrrole-5-carboxylic acid]: under setting [1], the inhibition at 10 µM stood at 85.3%.
Take “(1S,2S,3aS,5S,6R,6aR)-2-amino-1-(3-boronopropyl)-6-fluoro-5-hydroxyoctahydropentalene-2-carboxylate [Example 52a]”: the IC50 amounted to 220 nM. For the same molecule, where the note is “Top Dose 10000 nM”, the “Percent Inhibition at Top Dose” value was found to be 96.25%.
As to `N[C@@]1(C(=O)O)C[C@H]2CNC[C@H]2[C@@H]1CCCB(O)O` [Example 1f, (3aR,4S,5S,6aR)-5-amino-4-(3-boronopropyl)octahydrocyclopenta[c]pyrrole-5-carboxylic acid], the inhibition at 16 µM (Top Dose 16000 nM, read-out: Percent Inhibition at Top Dose) was found to be 87.8%.
As to `CC(=O)N1C[C@@H]2C[C@@](N)(C(=O)O)[C@@H](CCCB(O)O)[C@@H]2C1` [Example 7, (3aR,4S,5S,6aR)-2-acetyl-5-amino-4-(3-boronopropyl)octahydrocyclopenta[c]pyrrole-5-carboxylic acid], the inhibition at 10 µM under setting [1] was determined as 72.8%.
On to `NC1(C(=O)O)CC2CCCC2C1CCCB(O)O` (stereo not shown) [Example 34a, 2-amino-1-(3-boronopropyl)octahydropentalene-2-carboxylic acid], for which the inhibition at 10 µM under setting [1] was 22.2%.
Consider “(1S,2S,3aR,4S,5R,6aS)-2-amino-1-(3-boronopropyl)-4-fluoro-5-hydroxyoctahydropentalene-2-carboxylate [Example 54b]”, for which the IC50 is 42.5 nM. Also, the “Percent Inhibition at Top Dose” value (Top Dose 10000 nM) turned out to be 100.1%.
For the molecule `NC1(C(=O)O)C[C@H]2CNC[C@H]2C1CCCB(O)O` (relative stereo) [Example 1, (3aR,6aR-rel-)-5-amino-4-(3-boronopropyl)octahydrocyclopenta[c]pyrrole-5-carboxylic acid], the inhibition at 100 µM under setting [2] amounted to 99.4%.
For the molecule `N[C@@]1(C(=O)O)C[C@H]2C[C@@H](NCC(F)(F)F)C[C@H]2[C@@H]1CCCB(O)O` [Example 49, (1S,2S,3aR,5R,6aR)-2-amino-1-(3-boronopropyl)-5-((2,2,2-trifluoroethyl)amino)octahydropentalene-2-carboxylic acid], the inhibition at 10 µM under setting [1] was determined as 85.9%.
Consider `NC1(C(=O)O)C(CCCB(O)O)C[C@H]2NCC[C@H]21` (mixture of isomers) [Example 20f, (3aR,6aR)-4-amino-5-(3-boronopropyl)octahydrocyclopenta[b]pyrrole-4-carboxylic acid], for which, under setting [3], the inhibition at 10 µM was determined as 99.2%.
`C[C@H](N)C(=O)N1CCCC12CCC(N)(C(=O)O)C(CCCB(O)O)C2` (stereo partly drawn) [Example 26, 8-amino-1-((S)-2-aminopropanoyl)-7-(3-boronopropyl)-1-azaspiro[4.5]decane-8-carboxylic acid hydrochloride]: the inhibition at 10 µM under setting [3] is 45.2%.
For `NC1(C(=O)O)C2CNC(C2)C1CCCB(O)O` (stereo not shown) [Example 24, 5-amino-6-(3-boronopropyl)-2-azabicyclo[2.2.1]heptane-5-carboxylic acid], the inhibition at 100 µM under setting [2] turned out to be 95.9%.
Consider `N[C@@]1(C(=O)O)C[C@H]2C[C@H](O)C[C@H]2[C@@H]1CCCB(O)O` [Example 44b, (1S,2S,3aS,5S,6aR)-2-amino-1-(3-boronopropyl)-5-hydroxyoctahydropentalene-2-carboxylic acid], for which the IC50 is 178 nM. Besides, the inhibition at 10 µM under setting [1] turned out to be 97.4%.
In the case of `N[C@@]1(C(=O)O)C[C@H]2C(=O)NC[C@H]2[C@@H]1CCCB(O)O` (single isomer, unassigned) [Example 23a], the inhibition at 10 µM under setting [1] is 86.5%.
On the same count and under the same terms, as for `N[C@@]1(C(=O)O)C[C@H]2C[C@@H](NCCO)C[C@H]2[C@@H]1CCCB(O)O` [Example 48, (1S,2S,3aR,5R,6aR)-2-amino-1-(3-boronopropyl)-5-((2-hydroxyethyl)amino)octahydropentalene-2-carboxylic acid], the figure is 98.4%.
Same read-out and setting: as for `NC1(C(=O)O)C(CCCB(O)O)C[C@H]2C[C@H]21` (relative stereo) [Example 36a, rel-(1R,5R)-2-amino-3-(3-boronopropyl)bicyclo[3.1.0]hexane-2-carboxylic acid], the figure is 93%.
In the case of `CC1NC[C@@H]2[C@H]1CC(N)(C(=O)O)[C@H]2CCCB(O)O` (stereo partly drawn) [Example 31a, (3aR,4S,6aR)-5-amino-4-(3-boronopropyl)-1-methyloctahydrocyclopenta[c]pyrrole-5-carboxylic acid], the inhibition at 10 µM under setting [1] was 89.9%.
The same measure, in the same setting: as for `NCC(=O)N1C[C@@H]2CC(N)(C(=O)O)C(CCCB(O)O)[C@@H]2C1` (stereo in doubt) [Example 16, 5-amino-2-(2-aminoacetyl)-4-(3-boronopropyl)octahydrocyclopenta[c]pyrrole-5-carboxylic acid], the figure is 97.9%.
